The CheMixHub viscosity set

Experiment: xn = mol fraction of the nth substance listed

N#Cc1ccccc1 + CCCCCO
viscosity [mPa·s], 101.33 kPa
Conditions	x1 = 0.1034	x1 = 0.1623	x1 = 0.3038	x1 = 0.387	x1 = 0.5033	x1 = 0.6086	x1 = 0.7205	x1 = 0.82	x1 = 0.9162
303.15 K	2.395	2.152	1.737	1.558	1.374	1.262	1.182	1.153	1.14
308.15 K	2.116	1.925	1.565	1.406	1.244	1.162	1.097	1.079	1.064
313.15 K	1.895	1.723	1.412	1.283	1.14	1.07	1.017	1.01	0.993

N#Cc1ccccc1 + COC(C)(C)C
viscosity [mPa·s], 101.33 kPa
Conditions	x2 = 0.1048	x2 = 0.2024	x2 = 0.3015	x2 = 0.3969	x2 = 0.4912	x2 = 0.6055	x2 = 0.7115	x2 = 0.7995	x2 = 0.905
293.15 K	1.277	1.18	1.081	0.9863	0.8924	0.7787	0.6732	0.5856	0.4806
298.15 K	1.185	1.096	1.006	0.9189	0.8329	0.7286	0.6319	0.5516	0.4554

CCC(=O)OC + c1ccccc1
viscosity [mPa·s]
Conditions	298.15 K	308.15 K	313.15 K	318.15 K
101 kPa, x2 = 0.1014	0.435	–	0.373	–
101 kPa, x2 = 0.1972	0.444	–	0.38	–
101 kPa, x2 = 0.3002	0.453	–	0.387	–
101 kPa, x2 = 0.3996	0.466	–	0.397	–
101 kPa, x2 = 0.5012	0.48	–	0.407	–
101 kPa, x2 = 0.6036	0.496	–	0.419	–
101 kPa, x2 = 0.6961	0.513	–	0.43	–
101 kPa, x2 = 0.8009	0.536	–	0.447	–
101 kPa, x2 = 0.898	0.561	–	0.465	–
101.3 kPa, x1 = 0.0415	–	0.53	–	0.466
101.3 kPa, x1 = 0.1037	–	0.52	–	0.461
101.3 kPa, x1 = 0.2041	–	0.505	–	0.453
101.3 kPa, x1 = 0.3026	–	0.492	–	0.446
101.3 kPa, x1 = 0.4053	–	0.48	–	0.44
101.3 kPa, x1 = 0.4569	–	0.474	–	0.437
101.3 kPa, x1 = 0.6013	–	0.462	–	0.43
101.3 kPa, x1 = 0.7026	–	0.453	–	0.425
101.3 kPa, x1 = 0.8018	–	0.447	–	0.43
101.3 kPa, x1 = 0.9039	–	0.441	–	0.418
101.3 kPa, x1 = 0.9674	–	0.438	–	0.417

CCCOCCO + CCCN
viscosity [mPa·s], 101.33 kPa
Conditions	298.15 K	308.15 K	318.15 K
x1 = 0.0069	0.365	0.336	0.296
x1 = 0.0201	0.383	0.346	0.307
x1 = 0.054	0.429	0.385	0.335
x1 = 0.1049	0.509	0.446	0.382
x1 = 0.1955	0.678	0.574	0.481
x1 = 0.2496	0.797	0.668	0.55
x1 = 0.3215	0.969	0.8	0.655
x1 = 0.3686	1.103	0.895	0.722
x1 = 0.4528	1.338	1.075	0.853
x1 = 0.4581	1.355	1.088	0.862
x1 = 0.5595	1.629	1.289	1.015
x1 = 0.6789	1.925	1.51	1.175
x1 = 0.752	2.082	1.628	1.265
x1 = 0.8162	2.191	1.715	1.32
x1 = 0.8943	2.282	1.803	1.385
x1 = 0.9697	2.333	1.867	1.435

CCCOCCO + OCCOCCO
101 kPa
Conditions	viscosity [mPa·s]
293.15 K, x1 = 0.0522	34.91
293.15 K, x1 = 0.1049	31.33
293.15 K, x1 = 0.2035	25.38
293.15 K, x1 = 0.2926	20.65
293.15 K, x1 = 0.3996	15.84
293.15 K, x1 = 0.4555	13.73
293.15 K, x1 = 0.4975	12.32
293.15 K, x1 = 0.5488	10.8
293.15 K, x1 = 0.5924	9.666
293.15 K, x1 = 0.7043	7.291
293.15 K, x1 = 0.7921	5.699
293.15 K, x1 = 0.9015	3.905
293.15 K, x1 = 0.9536	3.147
298.15 K, x1 = 0.053	26.82
298.15 K, x1 = 0.1014	24.15
298.15 K, x1 = 0.1985	19.48
298.15 K, x1 = 0.3104	15.16
298.15 K, x1 = 0.4057	12.25
298.15 K, x1 = 0.4511	11.07
298.15 K, x1 = 0.4975	9.977
298.15 K, x1 = 0.5511	8.842
298.15 K, x1 = 0.6049	7.816
298.15 K, x1 = 0.6981	6.239
298.15 K, x1 = 0.8017	4.717
298.15 K, x1 = 0.89	3.562
298.15 K, x1 = 0.9483	2.89
303.15 K, x1 = 0.0608	19.27
303.15 K, x1 = 0.1099	17.35
303.15 K, x1 = 0.1927	14.48
303.15 K, x1 = 0.3017	11.38
303.15 K, x1 = 0.3982	9.174
303.15 K, x1 = 0.4498	8.171
303.15 K, x1 = 0.4916	7.433
303.15 K, x1 = 0.5511	6.487
303.15 K, x1 = 0.6073	5.701
303.15 K, x1 = 0.7083	4.5
303.15 K, x1 = 0.7941	3.671
303.15 K, x1 = 0.9072	2.776
303.15 K, x1 = 0.9353	2.579

CCCCn1cc[n+](C)c1.[Cl-] + CCO
viscosity [mPa·s], 101 kPa
Conditions	293.15 K	303.15 K	308.15 K
x2 = 0.4991	75.1	–	–
x2 = 0.7003	–	9.24	8.17

CCCCn1cc[n+](C)c1.[Cl-] + CN(C)C=O
101 kPa
Conditions	viscosity [mPa·s]
293.15 K, x2 = 0.5025	76.7
293.15 K, x2 = 0.9	3.41
298.15 K, x2 = 0.501	64.4
303.15 K, x2 = 0.7005	9.55
308.15 K, x1 = 0.1056	1.665
308.15 K, x1 = 0.1399	2.135
308.15 K, x2 = 0.7	7.76

CCOCCOCCOCCO + ClC(Cl)=C(Cl)Cl
298.15 K, 101.33 kPa
Conditions	viscosity [mPa·s]
x1 = 0.0072	0.863
x1 = 0.0185	0.892
x1 = 0.0339	0.931
x1 = 0.0489	0.969
x1 = 0.0609	1.008
x1 = 0.0867	1.081
x1 = 0.1081	1.154
x1 = 0.1487	1.29
x1 = 0.1926	1.459
x1 = 0.2354	1.634
x1 = 0.2903	1.893
x1 = 0.3204	2.052
x1 = 0.3495	2.207
x1 = 0.3887	2.429
x1 = 0.4239	2.631
x1 = 0.4633	2.863
x1 = 0.5019	3.105
x1 = 0.5442	3.384
x1 = 0.5861	3.665
x1 = 0.6345	4.013
x1 = 0.6893	4.413
x1 = 0.7441	4.852
x1 = 0.8008	5.303
x1 = 0.8471	5.684
x1 = 0.9061	6.191
x1 = 0.9387	6.486
x1 = 0.9502	6.589
x1 = 0.9795	6.871

CCCOCCO + O=C1CCCN1
298.15 K, 101 kPa
Conditions	viscosity [mPa·s]
x1 = 0.0058	13.97
x1 = 0.015	13.55
x1 = 0.035	12.83
x1 = 0.0681	11.7
x1 = 0.1013	10.72
x1 = 0.1517	9.453
x1 = 0.2214	8.048
x1 = 0.2526	7.522
x1 = 0.3008	6.831
x1 = 0.3725	5.947
x1 = 0.3786	5.895
x1 = 0.4257	5.419
x1 = 0.4698	5.028
x1 = 0.5219	4.651
x1 = 0.5519	4.44
x1 = 0.6236	3.983
x1 = 0.6987	3.576
x1 = 0.7597	3.317
x1 = 0.8327	2.977
x1 = 0.8764	2.801
x1 = 0.9045	2.695
x1 = 0.9327	2.592
x1 = 0.9694	2.473
x2 = 0.0135	2.409

N[C@@H](CCC(=O)O)C(=O)O + O
viscosity [mPa·s], 101.3 kPa
Conditions	x1 = 0.000207	x1 = 0.00038	x1 = 0.00043	x1 = 0.000542	x1 = 0.000801	x1 = 0.000855	x1 = 0.0012
293.15 K	1.004	1.012	1.007	1.011	1.021	1.019	1.027
298.15 K	0.8955	0.9049	0.8994	0.9025	0.9086	0.9109	0.9194
303.15 K	0.8079	0.8164	0.8109	0.8148	0.8178	0.8217	0.8279
313.15 K	0.6741	0.6803	0.6764	0.6779	0.6818	0.6849	0.6903
323.15 K	0.5787	0.5857	0.581	0.5826	0.5849	0.5864	0.5895

C[n+]1ccn(CCc2ccccc2)c1.[Cl][Al-]([Cl])([Cl])[Cl] + CCCC[n+]1ccn(C)c1.[Cl][Al-]([Cl])([Cl])[Cl]
viscosity [mPa·s], 101 kPa
Conditions	293.15 K	298.15 K	303.15 K	308.15 K	313.15 K	318.15 K	323.15 K
x2 = 0.5	92.4	74.8	60.6	50.1	41.7	36.4	32.1
x2 = 0.6	75.1	60	50.6	41.6	35.6	30.4	27

N#Cc1ccccc1 + Cc1ccccc1
viscosity [mPa·s], 100 kPa
Conditions	x1 = 0.1034	x1 = 0.2113	x1 = 0.3332	x1 = 0.409	x1 = 0.5093	x1 = 0.6337	x1 = 0.7569	x1 = 0.879
303 K	0.5391	0.5612	0.6226	0.6592	0.7016	0.7812	0.8795	0.9682
308 K	0.5099	0.5348	0.6121	0.6589	0.7285	0.7989	0.8621	0.9325
313 K	0.5068	0.5399	0.5908	0.6325	0.6985	0.7545	0.8319	0.8819

CCCCC[N+](CC)(CC)CC.O=S(=O)([N-]S(=O)(=O)C(F)(F)F)C(F)(F)F + CCCCC[P+](CC)(CC)CC.O=S(=O)([N-]S(=O)(=O)C(F)(F)F)C(F)(F)F
viscosity [mPa·s], 101.3 kPa
Conditions	298.15 K	303.15 K	308.15 K	313.15 K	318.15 K
x1 = 0.2	96.6	75.4	59.8	–	–
x1 = 0.4	–	83.6	65.8	52.7	–
x1 = 0.6	–	94.3	73.6	58.4	–
x1 = 0.8	–	–	83.8	–	52.8
